Data on 55 compounds can be found in patent US7566718B2, “Amine-linked pyridyl and phenyl substituted piperazine-piperidines with CXCR3 antagonist activity” (Schering Corporation, priority 2005, dated 2009).

This test has as its target T1, human CXCR3 (N-delta 4) (Homo sapiens, UniProt P49682).
T1 construct: CD8 leader (N); Flag tag; expressed in transfected cells; membrane preparation
T1 sequence (P49682 5-368 limits assumed): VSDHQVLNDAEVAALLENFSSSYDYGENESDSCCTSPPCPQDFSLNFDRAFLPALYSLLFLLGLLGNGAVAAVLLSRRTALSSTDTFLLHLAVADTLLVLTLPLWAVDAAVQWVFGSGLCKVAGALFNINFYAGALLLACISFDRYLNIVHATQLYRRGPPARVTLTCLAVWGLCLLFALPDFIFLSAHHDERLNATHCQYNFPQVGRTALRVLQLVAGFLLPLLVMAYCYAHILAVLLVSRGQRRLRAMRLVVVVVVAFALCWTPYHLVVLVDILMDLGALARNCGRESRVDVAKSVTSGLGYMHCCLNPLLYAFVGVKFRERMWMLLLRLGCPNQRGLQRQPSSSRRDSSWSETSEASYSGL
Description: Human CXCR3 (N-delta 4) scintillation proximity assay (SPA), [125I] IP-10 binding to Ba/F3-hCXCR3 membranes. As to conditions: IC50 rating; [125I] IP-10 displacement, human CXCR3; read-out: IC50. In outline: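 Membranes from Ba/F3 cells expressing Flag-tagged hCXCR3 (N-delta 4), 2 μg/point, precoupled to WGA SPA beads. Binding of 25 pM [125I] IP-10 measured with titrated compounds, 3 hr at room temperature, in HEPES buffer with CaCl2, MgCl2, NaCl and 1.0% BSA; bound tracer read by scintillation counting.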
For orientation: SPA uses beads or plates that emit light when radiolabelled molecules are held near them.
For orientation: IC50 means the point on the concentration scale where inhibition reaches its midpoint. As to `CC[C@H]1CN(c2ncc(NC3=NS(=O)(=O)N=C3N3CCOCC3)cc2Cl)CCN1C1CCN(Cc2ccc(OC(F)(F)F)cc2)CC1` [Compound 261], the IC50 was in the range of 25 to 100 nM.
On to `CC[C@H]1CN(c2ncc(NS(C)(=O)=O)cc2Cl)CCN1C1CCN(Cc2c(F)cc(F)cc2F)CC1` [Compound 47], for which the concentration for half-maximal inhibition (IC50) was more than 100 nM.
Regarding `CC[C@H]1CN(c2ncc(NC3=NS(=O)(=O)N=C3NCC(C)(C)C)cc2Cl)CCN1C1CCN(Cc2ccc(Cl)cc2C#N)CC1` [Compound 278], the IC50 is more than 100 nM.
The value for `C[C@H]1CN(c2ncc(NS(C)(=O)=O)cc2Cl)CCN1C1CCN(Cc2ccc(C#N)cc2)CC1` [Compound 53] was more than 100 nM.
Regarding `CC[C@H]1CN(c2ncc(NC3=NS(=O)(=O)N=C3NC3CC3)cc2Cl)CCN1C1CCN(Cc2ccc(Cl)cc2-c2ncon2)CC1` [Compound 249], the IC50 is less than 25 nM.
In the case of `CC[C@H]1CN(c2ncc(Nc3c(NCC(=O)O)c(=O)c3=O)cc2Cl)CCN1C1CCN([C@H](CO)c2ccc(Cl)cc2)CC1` [Compound 129], the IC50 is more than 100 nM.
For `C[C@@H]1CN(c2ncc(Nc3c(NCC(F)(F)F)c(=O)c3=O)cc2Cl)[C@@H](C)CN1C1CCN(CC(c2ccccc2)c2ccccc2)CC1` [Compound 160], the 50% inhibitory concentration (IC50) was more than 100 nM.
Take `CC[C@H]1CN(c2ncc(Nc3c(NC4CC4)c(=O)c3=O)cc2Cl)CCN1C1CCN([C@H](CO)c2ccc(Cl)cc2)CC1` [Compound 71]: the IC50 is less than 25 nM.
As for `CC[C@H]1CN(c2ncc(NC3=NS(=O)(=O)N=C3NCC(F)(F)F)cc2Cl)CCN1C1CCN(Cc2ccc(Cl)cc2F)CC1` [Compound 252], the IC50 was less than 25 nM.
As to `C[C@@H]1CN(c2ncc(Nc3c(NCC(F)(F)F)c(=O)c3=O)cc2Cl)[C@@H](C)CN1C1CCN(Cc2cccc(Cl)c2Cl)CC1` [Compound 158], the half-inhibitory concentration (IC50) was more than 100 nM.
For the compound `CC[C@H]1CN(c2ncc(Nc3c(NC4CC4)c(=O)c3=O)cc2Cl)CCN1C1CCN(Cc2ccc(Cl)cc2C(=O)OC)CC1` [Compound 91], the IC50 is less than 25 nM.
Turning to `C[C@@H]1CN(c2ncc(Nc3c(NCC(F)(F)F)c(=O)c3=O)cc2Cl)[C@@H](C)CN1C1CCN(Cc2ccc(Cl)cc2Cl)CC1` [Compound 134], the IC50 is more than 100 nM.
On to `C[C@@H]1CN(c2ncc(Nc3c(NCC(F)(F)F)c(=O)c3=O)cc2Cl)[C@@H](C)CN1C1CCN(Cc2cc3ccccc3o2)CC1` [Compound 133], for which the IC50 was more than 100 nM.
Regarding `COC1CCCC(CN2CCC(N3C[C@H](C)N(c4ncc(Nc5c(NCC(F)(F)F)c(=O)c5=O)cc4Cl)C[C@H]3C)CC2)O1` (stereo partly shown) [Compound 151], the IC50 is more than 100 nM.
With `Cc1ccc(CN2CCC(N3CCN(c4ncc(NS(C)(=O)=O)cc4Cl)C[C@@H]3C)CC2)c(C)c1` [Compound 49], the half-maximal inhibitory concentration (IC50) is more than 100 nM.
Next, `CC[C@H]1CN(c2ncc(Nc3c(NCCO)c(=O)c3=O)cc2Cl)CCN1C1CCN(Cc2ccc(Cl)cc2C(N)=O)CC1` [Compound 72]: less than 25 nM; `CC[C@H]1CN(c2ncc(NS(=O)(=O)NC(=O)OC(C)(C)C)cc2Cl)CCN1C1CCN(Cc2ccc(Cl)cc2F)CC1` [Compound 55]: more than 100 nM.
On to `CC[C@H]1CN(c2ncc(NS(C)(=O)=O)cc2Cl)CCN1C1CCN(Cc2ccc(OC(F)(F)F)cc2)CC1` [Compound 10], for which the IC50 was less than 25 nM.
`CC[C@H]1CN(c2ncc(NS(C)(=O)=O)cc2Cl)CCN1C1CCN(Cc2ccc(C)cc2)CC1` [Compound 19]: the IC50 was less than 25 nM.
As for `CC[C@H]1CN(c2ncc(Nc3c(N(C)C)c(=O)c3=O)cc2Cl)CCN1C1CCN([C@H](C(=O)NC)c2ccc(Cl)cc2)CC1` [Compound 128], the IC50 is more than 100 nM.
As for `CC[C@H]1CN(c2ncc(NS(C)(=O)=O)cc2Cl)CCN1C1CCN(Cc2ccc(Cl)cc2C#N)CC1` [Compound 23], the IC50 is less than 25 nM.
In the case of `CCCCNC1=NS(=O)(=O)N=C1Nc1cnc(N2CCN(C3CCN(Cc4ccc(Cl)cc4C(=N)NO)CC3)[C@@H](CC)C2)c(Cl)c1` [Compound 241], the half-maximal inhibitory concentration (IC50) is less than 25 nM.
Take `CC[C@H]1CN(c2ncc(NS(C)(=O)=O)cc2Cl)CCN1C1CCN(Cc2ccc(C(=O)OC)cn2)CC1` [Compound 42]: the IC50 was more than 100 nM.
Consider `CC[C@H]1CN(c2ncc(NC3=NS(=O)(=O)N=C3NC3CC3)cc2Cl)CCN1C1CCN(C(=O)c2ccc(Cl)cc2O)CC1` [Compound 275], for which the IC50 is more than 100 nM.
For `CC[C@H]1CN(c2ncc(NS(C)(=O)=O)cc2Cl)CCN1C1CCN(Cc2ccc(Br)cc2F)CC1` [Compound 8], the IC50 is less than 25 nM.
Next, `CC[C@H]1CN(c2ncc(NC3=NS(=O)(=O)N=C3N3CCC3)cc2Cl)CCN1C1CCN(Cc2ccc(F)c(F)c2)CC1` [Compound 268]: more than 100 nM; `CC[C@H]1CN(c2ncc(NS(N)(=O)=O)cc2Cl)CCN1C1CCN([C@H](C(=O)OC)c2ccc(Cl)cc2)CC1` [Compound 16]: less than 25 nM.
Next, `CC[C@H]1CN(c2ncc(NS(C)(=O)=O)cc2Cl)CCN1C1CCN(Cc2ccc(Cl)cc2)CC1` [Compound 6]: less than 25 nM; `CC[C@H]1CN(c2ncc(NC(=O)C3CC3)cc2Cl)CCN1C1CCN(Cc2ccc(Cl)cc2F)CC1` [Compound 180]: less than 25 nM; `C[C@@H]1CN(C2CCN(Cc3ccc(Cl)cc3F)CC2)[C@@H](C)CN1c1ncc(Nc2c(NCC(F)(F)F)c(=O)c2=O)cc1Cl` [Compound 104]: 25 to 100 nM.
On to `CC[C@H]1CN(c2ncc(NS(C)(=O)=O)cc2Cl)CCN1C1CCN(Cc2ccc(OC)cc2OC)CC1` [Compound 18], for which the half-inhibitory concentration (IC50) is less than 25 nM.
For `CC[C@H]1CN(c2ncc(NC(=O)NN)cc2Cl)CCN1C1CCN(Cc2ccc(Cl)cc2F)CC1` [Compound 188], the IC50 was 25 to 100 nM.
The value for `CC[C@H]1CN(c2ncc(NS(C)(=O)=O)cc2Cl)CCN1C1CCN(C(=O)c2ccc(Cl)cc2)CC1` [Compound 51] was more than 100 nM; that for `CC[C@H]1CN(c2ncc(NC3=NS(=O)(=O)N=C3NCC3CC3)cc2Cl)CCN1C1CCN(Cc2ccc(Cl)cc2F)CC1` [Compound 246] was less than 25 nM; that for `COc1ccc(CN2CCC(N3CCN(c4ncc(NS(C)(=O)=O)cc4Cl)C[C@@H]3C)CC2)c(F)c1` [Compound 56] was more than 100 nM.
Turning to `CC[C@H]1CN(c2ncc(NS(C)(=O)=O)cc2Cl)CCN1C1CCN(Cc2ccc(OC(F)F)cc2)CC1` [Compound 13], the IC50 is less than 25 nM.
`C[C@H]1CN(c2ncc(NS(C)(=O)=O)cc2Cl)CCN1C1CCN(Cc2ccc(Cl)cc2)CC1` [Compound 32]: the IC50 was 25 to 100 nM.
The value for `CC[C@H]1CN(c2ncc(NS(C)(=O)=O)cc2Cl)CCN1C1CCN([C@H](CO)c2ccc(Cl)cc2)CC1` [Compound 4] was less than 25 nM.
Take `CC[C@H]1CN(c2ncc(NC3=NS(=O)(=O)N=C3N)cc2Cl)CCN1C1CCN(Cc2ccc(Cl)cc2F)CC1` [Compound 259]: the IC50 fell in the range of 25 to 100 nM.
As to `CC[C@H]1CN(c2ncc(Nc3c(N)c(=O)c3=O)cc2Cl)CCN1C1CCN(Cc2ccc(Cl)cc2F)CC1` [Compound 76], the 50% inhibitory concentration (IC50) was less than 25 nM.
`CC[C@H]1CN(c2ncc(N/C(N)=N/C#N)cc2Cl)CCN1C1CCN(Cc2ccc(Cl)cc2F)CC1` [Compound 208]: the half-inhibitory concentration (IC50) was 25 to 100 nM.
For the compound `CC[C@H]1CN(c2ncc([N+](=O)[O-])cc2Cl)CCN1C1CCN(Cc2ccc(Cl)cc2F)CC1` [Compound 212], the concentration for half-maximal inhibition (IC50) lay in the range of 25 to 100 nM.
The value for `C[C@H]1CN(c2ncc(NS(C)(=O)=O)cc2Cl)CCN1C1CCN(Cc2ccc(OC(F)(F)F)cc2)CC1` [Compound 38] was 25 to 100 nM.
As for `CC[C@H]1CN(c2ncc(NC(=O)C3CCCCC3)cc2Cl)CCN1C1CCN(Cc2ccc(Cl)cc2F)CC1` [Compound 195], the IC50 is more than 100 nM.
Next, `C[C@H]1CN(c2ncc(-n3cccn3)cc2Cl)CCN1C1CCN(Cc2ccc(Cl)cc2F)CC1` [Compound 225]: more than 100 nM.
For the compound `CC[C@H]1CN(c2ncc(NS(C)(=O)=O)cc2Cl)CCN1C1CCN(Cc2cc(Br)cs2)CC1` [Compound 44], the IC50 was more than 100 nM.
For the compound `CC[C@H]1CN(c2ncc(NS(C)(=O)=O)cc2Cl)CCN1C1CCN(Cc2cccs2)CC1` [Compound 58], the 50% inhibitory concentration (IC50) is more than 100 nM.
In the case of `C[C@@H]1CN(c2ncc(Nc3c(NCC(F)(F)F)c(=O)c3=O)cc2Cl)[C@@H](C)CN1C1CCN(Cc2ccc(C#N)cc2)CC1` [Compound 114], the half-maximal inhibitory concentration (IC50) was more than 100 nM.
For `CC[C@H]1CN(c2ncc(N)cc2Cl)CCN1C1CCN(Cc2ccc(Cl)cc2)CC1` [Compound 202], the IC50 is less than 25 nM.
For `C[C@@H]1CN(c2ncc(Nc3c(NCC(F)(F)F)c(=O)c3=O)cc2Cl)[C@@H](C)CN1C1CCN(Cc2cccc(C#N)c2)CC1` [Compound 143], the IC50 was more than 100 nM.
With `CC(=O)Nc1cnc(N2CCN(C3CCN(Cc4ccc(Cl)cc4)CC3)[C@@H](C)C2)c(Cl)c1` [Compound 181], the IC50 was less than 25 nM.
Turning to `C[C@@H]1CN(c2ncc(Nc3c(NCC(F)(F)F)c(=O)c3=O)cc2Cl)[C@@H](C)CN1C1CCN(Cc2ccc(Cl)c(Cl)c2)CC1` [Compound 124], the half-inhibitory concentration (IC50) is more than 100 nM.
Next, `CC[C@H]1CN(c2ncc(NC3=NS(=O)(=O)N=C3N(C)C)cc2Cl)CCN1C1CCN(Cc2ccc(Cl)cc2C(=N)NO)CC1` [Compound 256]: 25 to 100 nM; `C[C@@H]1CN(c2ncc(Nc3c(NCC(F)(F)F)c(=O)c3=O)cc2Cl)[C@@H](C)CN1C1CCN(Cc2ccc(Cl)cc2)CC1` [Compound 98]: less than 25 nM; `C[C@@H]1CN(c2ncc(Nc3c(NCC(F)(F)F)c(=O)c3=O)cc2Cl)[C@@H](C)CN1C1CCN(C2CCCC2)CC1` [Compound 162]: more than 100 nM.
